# Reference: patent US20230203063A1, “TRICYCLIC PYRIDONES AND PYRIMIDONES” (Erasca, Inc., priority 2019, published 2023)
# Biological target: T1, mutant G12C K-RAS (Homo sapiens, UniProt P01116, G12C)
# T1 construct: made in house; host or cells: E. coli BL21
# Assay: covalent adduct formation (CAF) with mutant G12C K-RAS
# Assay type: binding
# Parameters: covalent adduct formation (CAF): unit not given here
# Conditions: Table 1; 10 micromolar, after 60 minutes
# Description: Embodiments disclosed herein are further illustrated by the following examples in Tables 1-4 and the Examples hereinbelow. The Tables indicate the compound number, structure, the observed mass spectral molecular weight peak, and covalent adduct formation (CAF) with a mutant G12C K-RAS after 60 minutes at a concentration of 10 micromolar.
row,Compound,% CAF(60 min) [%]
1,"C=CC(=O)N1CCN(c2nc(=O)n3c4c(c(-c5c(O)cccc5F)c(Cl)cc24)OCC3)CC1 [Example 1, 7-(4-acryloylpiperazin-1-yl)-9-chloro-10-(2-fluoro-6-hydroxyphenyl)-2H-[1,4]oxazino[2,3,4-ij]quinazolin-5(3H)-one]",89
2,"C=CC(=O)N1CC2(CCN(c3nc(=O)n4c5c(c(-c6c(O)cccc6F)c(Cl)cc35)OCC4)CC2)C1 [Example 2, 7-(2-acryloyl-2,7-diazaspiro[3.5]nonan-7-yl)-9-chloro-10-(2-fluoro-6-hydroxyphenyl)-2H-[1,4]oxazino[2,3,4-ij]quinazolin-5(3H)-one]",42.5
3,"C=CC(=O)N1CCN(c2nc(=O)n3c4c(c(-c5c(C)ccc6[nH]ncc56)c(Cl)cc24)OCC3)CC1 [Example 3, 7-(4-acryloylpiperazin-1-yl)-9-chloro-10-(5-methyl-1H-indazol-4-yl)-2H-[1,4]oxazino[2,3,4-ij]quinazolin-5(3H)-one]",67.4

# Same assay, conditions: Table 2; 10 micromolar, after 60 minutes
row,Compound,% CAF(60 min) [%]
1,"C=CC(=O)N1CCN(c2nc(=O)n3c4c(c(-c5c(O)cccc5F)c(Cl)cc24)OC[C@H]3CO)[C@@H](C)C1 [Example 23, (3R,10R)-7-((S)-4-acryloyl-2-methylpiperazin-1-yl)-9-chloro-10-(2-fluoro-6-hydroxyphenyl)-3-(hydroxymethyl)-2H-[1,4]oxazino[2,3,4-ij]quinazolin-5(3H)-one]",0

# Same assay, conditions: Table 4; 10 micromolar, after 60 minutes
row,Compound,% CAF(60 min) [%]
1,"C=CC(=O)N1C[C@H](C)N(c2c(C#N)c(=O)n3c4c(c(-c5ccc(F)cc5F)ccc24)OC[C@@H]3CN(C)C)C[C@H]1C [Example 51, (S)-7-((2S,5R)-4-acryloyl-2,5-dimethylpiperazin-1-yl)-10-(2,4-difluorophenyl)-3-((dimethylamino)methyl)-5-oxo-3,5-dihydro-2H-[1,4]oxazino[2,3,4-ij]quinoline-6-carbonitrile]",0
2,"C=CC(=O)N1C[C@H](C)N(c2c(C#N)c(=O)n3c4c(c(-c5ccc(F)cc5F)ccc24)OC[C@H]3CN(C)C)C[C@H]1C [Example 52, (R)-7-((2S,5R)-4-acryloyl-2,5-dimethylpiperazin-1-yl)-10-(2,4-difluorophenyl)-3-((dimethylamino)methyl)-5-oxo-3,5-dihydro-2H-[1,4]oxazino[2,3,4-ij]quinoline-6-carbonitrile]",0

# Same assay, conditions: Table 6; 10 uM, 1 h
row,Compound,"% CAF @ 10 uM, 1 h [%]"
1,"C=CC(=O)N1C[C@H](C)N(c2nc(=O)n3c4c(c(-c5c(O)cccc5F)c(Cl)cc24)OC[C@@H]3CN2CCOCC2)C[C@H]1C (atropisomer, axis not shown) [Example 208, (3R,10R)-7-((2S,5R)-4-acryloyl-2,5-dimethyl-piperazin-1-yl)-9-chloro-10-(2-fluoro-6-hydroxyphenyl)-3-(morpholinomethyl)-2,3-dihydro-5H-[1,4]-oxazino[2,3,4-ij]-quinazolin-5-one]",0
2,"C=CC(=O)N1C[C@H](C)N(c2nc(=O)n3c4c(c(-c5c(O)cccc5F)c(Cl)cc24)OC[C@H]3CN2CCOCC2)C[C@H]1C (atropisomer, axis not shown) [Example 210, (3R,10R)-7-((2S,5R)-4-acryloyl-2,5-dimethyl-piperazin-1-yl)-9-chloro-10-(2-fluoro-6-hydroxyphenyl)-3-(morpholinomethyl)-2,3-dihydro-5H-[1,4]-oxazino-[2,3,4-ij]-quinazolin-5-one]",0
3,"C=CC(=O)N1CCN(c2nc(=O)n3c4c(c(-c5c(O)cccc5F)c(Cl)cc24)OC[C@H]3CN2CCC(F)(F)C2)[C@@H](C)C1 (atropisomer, axis not shown) [Example 227, (3R,10R)-7-((S)-4-acryloyl-2-methyl-piperazin-1-yl)-9-chloro-3-((3,3-difluoropyrrolidin-1-yl)methyl)-10-(2-fluoro-6-hydroxyphenyl)-2,3-dihydro-5H-[1,4]-oxazino-[2,3,4-ij]-quinazolin-5-one]",0
4,"C=CC(=O)N1C[C@H](C)N(c2nc(=O)n3c4c(c(-c5c(O)cccc5F)c(Cl)cc24)OC[C@@H]3CN(C)CC(F)(F)F)C[C@H]1C (atropisomer, axis not shown) [Example 239, (3S,10R)-7-((2S,5R)-4-acryloyl-2,5-dimethylpiperazin-1-yl)-9-chloro-10-(2-fluoro-6-hydroxyphen-yl)-3-((methyl(2,2,2-trifluoroethyl)amino)-methyl)-2H-[1,4]-oxazino[2,3,4-ij]-quinazolin-5(3H)-one]",3
5,"C=CC(=O)N1C[C@H](C)N(c2nc(=O)n3c4c(c(-c5c(O)cccc5F)c(Cl)cc24)OC[C@H]3CN(C)CC(F)(F)F)C[C@H]1C (atropisomer, axis not shown) [Example 241, (3R,10R)-7-((2S,5R)-4-acryloyl-2,5-dimethylpiperazin-1-yl)-9-chloro-10-(2-fluoro-6-hydroxyphen-yl)-3-((methyl(2,2,2-trifluoroethyl)amino)-methyl)-2H-[1,4]-oxazino[2,3,4-ij]-quinazolin-5(3H)-one]",0
6,"C=CC(=O)N1C[C@H](C)N(c2nc(=O)n3c4c(c(-c5c(O)cccc5F)c(Cl)cc24)OC[C@H]3Cn2cccn2)C[C@H]1C (atropisomer, axis not shown) [Example 245, (3R,10R)-3-((1H-pyrazol-1-yl)methyl)-7-((2S,5R)-4-acryloyl-2,5-dimethylpiperazin-1-yl)-9-chloro-10-(2-fluoro-6-hydroxyphen-yl)-2H-[1,4]oxazino-[2,3,4-ij]quinazolin-5(3H)-one]",0
7,"C=CC(=O)N1C[C@H](C)N(c2nc(=O)n3c4c(c(-c5c(O)cccc5F)c(Cl)cc24)OC[C@H]3CN2CCN(C)CC2)C[C@H]1C (atropisomer, axis not shown) [Example 300, (3R,10R)-7-((2S,5R)-4-acryloyl-2,5-dimethylpiperazin-1-yl)-9-chloro-10-(2-fluoro-6-hydroxyphen-yl)-3-((4-methylpiper-azin-1-yl)methyl)-2,3-dihydro-5H-[1,4]-oxazino[2,3,4-ij]-quinazolin-5-one]",0
8,"C=CC(=O)N1C[C@H](C)N(c2nc(=O)n3c4c(c(-c5c(O)cccc5F)c(Cl)cc24)OC[C@@H]3CN2CCN(C)CC2)C[C@H]1C (atropisomer, axis not shown) [Example 305, (3S,10R)-7-((2S,5R)-4-acryloyl-2,5-dimethylpiperazin-1-yl)-9-chloro-10-(2-fluoro-6-hydroxyphen-yl)-3-((4-methylpiper-azin-1-yl)methyl)-2,3-dihydro-5H-[1,4]-oxazino[2,3,4-ij]-quinazolin-5-one]",0
9,"C=CC(=O)N1C[C@H](C)N(c2nc(=O)n3c4c(c(-c5c(C)ccc6[nH]ncc56)c(Cl)cc24)OC[C@H]3Cn2cccn2)C[C@H]1C (atropisomer, axis not shown) [Example 319, (3R,10S)-3-((1H-pyrazol-1-yl)methyl)-7-((2S,5R)-4-acryloyl-2,5-dimethylpiperazin-1-yl)-9-chloro-10-(5-methyl-1H-indazol-4-yl)-2,3-dihydro-5H-[1,4]oxazino[2,3,4-ij]-quinazolin-5-one]",0

# Same assay, conditions: Table 7; 10 micromolar, after 60 minutes
row,Compound,covalent adduct formation (CAF)
1,"C=CC(=O)N1CCN(c2nc(=O)n3c4c(c(-c5ccc(F)cc5F)c(Cl)cc24)SC(C)(C)C3)[C@@H](C)C1 [Example 76, 7-((S)-4-acryloyl-2-methylpiperazin-1-yl)-9-chloro-10-(2,4-difluorophenyl)-2,2-dimethyl-2,3-dihydro-5H-[1,4]thiazino[2,3,4-ij]quinazolin-5-one]",86.8
